Patent US8202902B2, “Bivalent SMAC mimetics and the uses thereof” (The Regents of the University of Michigan, priority 2006, dated 2012)

Legend:
[1] = biological target: T1, human XIAP protein (residues 120-356) (Homo sapiens, UniProt P98170); experiment: Fluorescence-polarization-based binding assay to XIAP protein (Smac2-F tracer); conditions: read-out: Binding to XIAP IC50 values
T1 construct: human XIAP protein (residues 120-356) (10 nM)
Experimental: The polarization values were measured after 2 hours incubation, using the Ultra plate reader. […] Curve fitting is performed using GraphPad Prism® software.

[2] = test system: MDA-MB-231 human breast cancer cell line; experiment: Cell growth inhibition, WST-8 assay, MDA-MB-231; format: cell-based; conditions: MDA-MB-231, read-out: IC50 values (nM) In WST-assay (MDA-MB-231)
Experimental: (§1) The rate of cell growth inhibition after treatment with different concentrations of the compound was determined using a WST-8 kit (2-(2-methoxy-4-nitrophenyl)-3-(4-nitrophenyl)-5-(2, 4 disulfophenyl)-2H-tetrazolium monosodium salt; Dojindo Molecular Technologies, Inc., Gaithersburg, Md.). WST-8 was added at a final concentration of 10% to each well, and then the plates were incubated at 37° C. for 2-3 hrs. The absorbance of the samples was measured at 450 nm using a ULTRA Tecan Reader (Molecular Device).

[3] = test system: SK-OV-3; experiment: Cell growth inhibition, WST assay, SK-OV-3; format: cell-based; conditions: Homo sapiens
Experimental: as §1, with “Cells were seeded in 96-well flat bottom cell culture plates at a density of 3000 cells/well with a tested compound and incubated at 37° C. in an atmosphere of 95% air and 5% CO2 for 4 days. The rate” for “The rate”

T1 sequence (P98170 120-356): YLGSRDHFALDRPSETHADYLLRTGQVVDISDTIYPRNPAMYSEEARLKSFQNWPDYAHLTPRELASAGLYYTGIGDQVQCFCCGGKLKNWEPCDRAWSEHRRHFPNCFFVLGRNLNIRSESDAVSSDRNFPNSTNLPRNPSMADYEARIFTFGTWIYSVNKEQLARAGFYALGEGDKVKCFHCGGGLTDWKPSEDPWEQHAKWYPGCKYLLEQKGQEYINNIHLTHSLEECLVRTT

SMILES | IC50 [1] | IC50 [2] | IC50 [3]
CN[C@@H](C)C(=O)N[C@H]1CCCC[C@H]2CC[C@@H](C(=O)N[C@@H](c3ccccc3)c3cn(CCCCCCCCn4cc([C@@H](NC(=O)[C@@H]5CC[C@@H]6CCCC[C@H](NC(=O)[C@H](C)NC)C(=O)N65)c5ccccc5)nn4)nn3)N2C1=O [SH-167] |  | < 10 nM | < 10 nM
CN[C@@H](C)C(=O)N[C@H]1CCCC[C@H]2CC[C@@H](C(=O)N[C@@H](c3ccc(F)cc3)c3cn(CCN4CCN(CCn5cc([C@@H](NC(=O)[C@@H]6CC[C@@H]7CCCC[C@H](NC(=O)[C@H](C)NC)C(=O)N76)c6ccc(F)cc6)nn5)CC4)nn3)N2C1=O [SH-181] | < 100 nM | < 10000 nM | 
CN[C@@H](C)C(=O)N[C@H]1CCCC[C@H]2CC[C@@H](C(=O)N[C@@H](c3ccc(F)cc3)c3cn(CCCCc4ccc(CCCCn5cc([C@@H](NC(=O)[C@@H]6CC[C@@H]7CCCC[C@H](NC(=O)[C@H](C)NC)C(=O)N76)c6ccc(F)cc6)nn5)cc4)nn3)N2C1=O [SH-182] | < 100 nM | < 10 nM | < 10 nM
C[C@H](NCCO)C(=O)N[C@H]1CCCC[C@H]2CC[C@@H](C(=O)N[C@@H](c3ccc(F)cc3)c3cn(CCN4CCN(CCn5cc([C@@H](NC(=O)[C@@H]6CC[C@@H]7CCCC[C@H](NC(=O)[C@H](C)NCCO)C(=O)N76)c6ccc(F)cc6)nn5)CC4)nn3)N2C1=O [SH-183] | < 100 nM | < 10000 nM | 
C[C@H](NCCO)C(=O)N[C@H]1CCCC[C@H]2CC[C@@H](C(=O)N[C@@H](c3ccc(F)cc3)c3cn(CCCCc4ccc(CCCCn5cc([C@@H](NC(=O)[C@@H]6CC[C@@H]7CCCC[C@H](NC(=O)[C@H](C)NCCO)C(=O)N76)c6ccc(F)cc6)nn5)cc4)nn3)N2C1=O [SH-184] | < 100 nM | < 10 nM | < 100 nM
CNC(Cc1c[nH]c2ccccc12)C(=O)NC1CCCCC2CCC(C(=O)NC(c3ccccc3)c3cn(CCCCc4ccc(CCCCn5cc(C(NC(=O)C6CCC7CCCCC(NC(=O)C(Cc8c[nH]c9ccccc89)NC)C(=O)N76)c6ccccc6)nn5)cc4)nn3)N2C1=O (stereo not shown) [SH-187] | > 10000 nM |  | 
CN[C@@H](C)C(=O)N[C@H]1CCCC[C@H]2CC[C@@H](C(=O)N[C@@H](c3ccccc3)c3ccc(CCCNC(=O)NCCCc4ccc([C@@H](NC(=O)[C@@H]5CC[C@@H]6CCCC[C@H](NC(=O)[C@@H](C)NC)C(=O)N65)c5ccccc5)cc4)cc3)N2C1=O [SH-188] | < 100 nM | < 100 nM | < 100 nM
CN[C@@H](C)C(=O)N[C@H]1CCCC[C@H]2CC[C@@H](C(=O)N[C@@H](c3ccccc3)c3ccc(CCCNC(=S)NCCCc4ccc([C@@H](NC(=O)[C@@H]5CC[C@@H]6CCCC[C@H](NC(=O)[C@@H](C)NC)C(=O)N65)c5ccccc5)cc4)cc3)N2C1=O [SH-189] | < 100 nM | < 100 nM | < 100 nM
CN[C@@H](C)C(=O)N[C@H]1CCCC[C@H]2CC[C@@H](C(=O)N[C@@H](c3ccccc3)c3ccc(CCCCNC(=O)NCCCCc4ccc([C@@H](NC(=O)[C@@H]5CC[C@@H]6CCCC[C@H](NC(=O)[C@H](C)NC)C(=O)N65)c5ccccc5)cc4)cc3)N2C1=O [SH-190] | < 100 nM | < 10 nM | < 10 nM
CN[C@@H](C)C(=O)N[C@H]1CCCC[C@H]2CC[C@@H](C(=O)N[C@H](c3ccccc3)c3cn(CCCCc4ccc(CCCCn5cc([C@H](NC(=O)[C@@H]6CC[C@@H]7CCCC[C@H](NC(=O)[C@H](C)NC)C(=O)N76)c6ccccc6)nn5)cc4)nn3)N2C1=O [SH-206] |  | < 1000 nM | < 1000 nM
CN[C@@H](C)C(=O)N[C@H]1CN(Cc2ccc(CN3CC[C@H]4CC[C@@H](C(=O)NC(c5ccccc5)c5ccccc5)N4C(=O)[C@@H](NC(=O)[C@H](C)NC)C3)cc2)CC[C@H]2CC[C@@H](C(=O)NC(c3ccccc3)c3ccccc3)N2C1=O [YP-317] | < 100 nM | < 100 nM | 
CN[C@@H](C)C(=O)N[C@H]1CN(C(=O)CCCCCCCCC(=O)N2CC[C@H]3CCC(C(=O)NC(c4ccccc4)c4ccccc4)N3C(=O)[C@@H](NC(=O)[C@H](C)NC)C2)CC[C@H]2CCC(C(=O)NC(c3ccccc3)c3ccccc3)N2C1=O (stereo partly shown) [YP-381] |  | < 10 nM | < 10 nM
CN[C@@H](C)C(=O)N[C@H]1CN(C(=O)CCCCCCCCCCC(=O)N2CC[C@H]3CC[C@@H](C(=O)NC(c4ccccc4)c4ccccc4)N3C(=O)[C@@H](NC(=O)[C@H](C)NC)C2)CC[C@H]2CC[C@@H](C(=O)NC(c3ccccc3)c3ccccc3)N2C1=O [YP-383] |  | < 10 nM | < 10 nM
CN[C@@H](C)C(=O)N[C@H]1CN(C(=O)CCCCCCC(=O)N2CC[C@H]3CCC(C(=O)NC(c4ccccc4)c4ccccc4)N3C(=O)[C@@H](NC(=O)[C@H](C)NC)C2)CC[C@H]2CCC(C(=O)NC(c3ccccc3)c3ccccc3)N2C1=O (stereo partly shown) [YP-385] |  | < 10 nM | < 10 nM

Next, values leading:

IC50 [1] | IC50 [2] | IC50 [3] | SMILES
< 10 nM | < 1000 nM |  | CN[C@@H](C)C(=O)N[C@H]1CC[C@H](n2cc(COCc3cn([C@H]4CC[C@H](NC(=O)[C@H](C)NC)C(=O)N5[C@H](CC[C@H]5C(=O)N[C@@H]5CCCc6ccccc65)C4)nn3)nn2)C[C@H]2CC[C@@H](C(=O)N[C@@H]3CCCc4ccccc43)N2C1=O (stereo in doubt) [SH-172]
< 50 nM |  |  | CN[C@@H](C)C(=O)N[C@H]1CCCC[C@H]2CC[C@@H](C(=O)N[C@H](COCCn3cc(COC[C@@H](NC(=O)[C@@H]4CC[C@@H]5CCCC[C@H](NC(=O)[C@H](C)NC)C(=O)N54)c4ccccc4)nn3)c3ccccc3)N2C1=O [SH-143]
< 50 nM |  |  | CN[C@@H](C)C(=O)N[C@H]1CCCC[C@H]2CC[C@@H](C(=O)N[C@H](COCc3cn([C@@H]4CC[C@H](NC(=O)[C@H](C)NC)C(=O)N5[C@H](CC[C@H]5C(=O)N[C@@H]5CCCc6ccccc65)C4)nn3)c3ccccc3)N2C1=O [SH-146]
< 10 nM | < 1000 nM |  | CN[C@@H](C)C(=O)N[C@H]1CC[C@@H](n2cc(COCc3cn([C@@H]4CC[C@H](NC(=O)[C@H](C)NC)C(=O)N5[C@H](CC[C@H]5C(=O)N[C@H]5CCCc6ccccc65)C4)nn3)nn2)C[C@H]2CC[C@@H](C(=O)NC3CCCc4ccccc43)N2C1=O (stereo partly shown) [SH-153]
< 10 nM | < 100 nM | < 100 nM | CN[C@@H](C)C(=O)N[C@H]1CCCC[C@H]2CC[C@@H](C(=O)N[C@@H](c3ccccc3)c3ccc(CCCn4cc(COCc5cn(CCCc6ccc([C@@H](NC(=O)[C@@H]7CC[C@@H]8CCCC[C@H](NC(=O)[C@H](C)NC)C(=O)N87)c7ccccc7)cc6)nn5)nn4)cc3)N2C1=O [SH-155]
< 10 nM | < 1000 nM | < 1000 nM | CN[C@@H](C)C(=O)N[C@H]1CCCC[C@H]2CC[C@@H](C(=O)N[C@@H](c3ccccc3)c3cn(CCOCCOCCn4cc([C@@H](NC(=O)[C@@H]5CC[C@@H]6CCCC[C@H](NC(=O)[C@H](C)NC)C(=O)N65)c5ccccc5)nn4)nn3)N2C1=O [SH-158]
< 10 nM | < 1000 nM | < 1000 nM | CN[C@@H](C)C(=O)N[C@H]1CCCC[C@H]2CC[C@@H](C(=O)N[C@@H](c3ccccc3)c3cn(CCOCCn4cc([C@@H](NC(=O)[C@@H]5CC[C@@H]6CCCC[C@H](NC(=O)[C@H](C)NC)C(=O)N65)c5ccccc5)nn4)nn3)N2C1=O [SH-159]
< 10 nM | < 1000 nM | < 1000 nM | CN[C@@H](C)C(=O)N[C@H]1CCCC[C@H]2CC[C@@H](C(=O)N[C@@H](c3ccccc3)c3cn(CCCCn4cc([C@@H](NC(=O)[C@@H]5CC[C@@H]6CCCC[C@H](NC(=O)[C@H](C)NC)C(=O)N65)c5ccccc5)nn4)nn3)N2C1=O [SH-166]
< 10 nM | < 100 nM |  | CN[C@@H](C)C(=O)N[C@H]1CC[C@H](n2cc(COCc3cn([C@H]4CC[C@H](NC(=O)[C@H](C)NC)C(=O)N5[C@H](CC[C@H]5C(=O)NC(c5ccccc5)c5ccccc5)C4)nn3)nn2)C[C@H]2CC[C@@H](C(=O)NC(c3ccccc3)c3ccccc3)N2C1=O [SH-176]
< 10 nM | < 100 nM |  | CN[C@@H](C)C(=O)N[C@H]1CC[C@@H](n2cc(COCc3cn([C@@H]4CC[C@H](NC(=O)[C@H](C)NC)C(=O)N5[C@H](CC[C@H]5C(=O)NC(c5ccccc5)c5ccccc5)C4)nn3)nn2)C[C@H]2CC[C@@H](C(=O)NC(c3ccccc3)c3ccccc3)N2C1=O [SH-177]
< 100 nM | < 10000 nM |  | CN[C@@H](C)C(=O)N[C@H]1CCCC[C@H]2CC[C@@H](C(=O)N[C@@H](c3ccccc3)c3cn(CCN4CCN(CCn5cc([C@@H](NC(=O)[C@@H]6CC[C@@H]7CCCC[C@H](NC(=O)[C@H](C)NC)C(=O)N76)c6ccccc6)nn5)CC4)nn3)N2C1=O [SH-178]
< 100 nM | < 10000 nM |  | C[C@H](NCCO)C(=O)N[C@H]1CCCC[C@H]2CC[C@@H](C(=O)N[C@@H](c3ccccc3)c3cn(CCN4CCN(CCn5cc([C@@H](NC(=O)[C@@H]6CC[C@@H]7CCCC[C@H](NC(=O)[C@H](C)NCCO)C(=O)N76)c6ccccc6)nn5)CC4)nn3)N2C1=O [SH-179]
< 100 nM | < 1000 nM | < 1000 nM | C[C@H](NCCO)C(=O)N[C@H]1CCCC[C@H]2CC[C@@H](C(=O)N[C@@H](c3ccccc3)c3cn(CCCCc4ccc(CCCCn5cc([C@@H](NC(=O)[C@@H]6CC[C@@H]7CCCC[C@H](NC(=O)[C@H](C)NCCO)C(=O)N76)c6ccccc6)nn5)cc4)nn3)N2C1=O [SH-180]
